Assays:
[Ser^113]βAR = molecular target: T1, [Ser^113]βAR (Mesocricetus auratus, UniProt P04274, D113S); experiment: Adenylyl cyclase stimulation in membranes of mouse L cells expressing the mutant receptor; format: biochemical, hamster; settings: result in words, acids compared with the corresponding esters
T1 construct: pSVHAC contains the full length hamster ß₂AR cDNA cloned into the EcoRI site of pSVL; expressed in transfected cells; host or cells: mouse L cells (clonal lines, membranes)
Procedure: Mutagenesis of the ßAR gene. […] Other standard cloning techniques were performed as described by the former Manual and would be easily reproduced by anyone trained in molecular biology. An oligonucleotide 19 nucleotides in length complementary to the phage DNA surrounding the codon for Asp¹¹³ were synthesized using an Applied Biosystems Model 3A DNA synthesizer. The oligonucleotide contained mismatched positions in order to convert the codon for Asp¹¹³ (GAT) to Ser ([…]). The oligonucleotide was annealed to the phage DNA for priming and extended using Klenow DNA polymerase and T4 DNA ligase. […] The ßAR gene in this vector utilizes the SV40 early promoter, the modified splice signal, and the ßAR polyadenylation site for expression. The ligated mixture was transformed into E. coli strain DH5 (Bethesda Research Laboratories) and ampicillin resistant colonies were screened by filter hybridization using the oligonucleotide corresponding to the mutation as the hybridization probe. Plasmids were isolated from several hybridization positive colonies and mapped to insure the proper DNA insert was contained in the clone. The mutations were resolved by retransformation of the plasmid DNA into E. coli. Mutant plasmid containing colonies were again isolated by filter hybridization as above. Plasmid DNA was isolated from overnight cultures of cells by alkaline lysis and twice banding in CsCl-ethidium bromide equilibrium density gradients. […] The purity of the plasmid preparation was tested by retransformation of the DNA into E. coli followed by colony hybridization. […] Plasmid DNA was isolated as above and confirmed by restriction mapping.
(§1) Expression in mammalian cells. For the establishment of clonal cell lines expressing mutant receptors, the plasmid DNAs were transfected into mouse L cells by the CaPO₄ procedure. […] The precipitate was added to the media covering subconfluent monolayers of mouse L cells in 100 mm petri dishes and incubated at 37°C for 4 hrs. The media was removed and the cells were washed once with Dulbecco's modified minimal essential medium (DMEM). […] DMEM containing 10% fetal bovine serum was then added to the monolayers and the cells were incubated at 37°C for 12-18 hrs. The medium was changed to DMEM containing 10% fetal bovine serum and […] genticin to select for cells containing the expression vector. […] Individual colonies were isolated and expanded into cell lines.
(§2) Membranes were prepared from L cell monolayers by hypotonic lysis in 10 mM Tris, pH 7.5 for 10 min at 4°C.
(§3) The reaction was allowed to proceed for 30 min at 30°C before it was quenched at 4°C with an excess of unlabeled ATP. The ³²P-cAMP produced was determined by Dowex and alumina chromatography, as described by Salomon et al., supra.
Data Analysis. Activation constant (Kact) values for adenylyl cyclase stimulation were obtained by computer assisted nonlinear regression analysis of curves generated in the presence of increasing concentrations of compounds. The Michaelis-Menton equation was used: V=Vmax[A]/Kact+[A], where V is the level of cyclase stimulation (in pmol ³²P-cAMP/mg protein/min) measured at a given agonist concentration [A], and Vmax is the calculated maximal stimulation at infinite agonist concentration.

[Ser¹¹³]ßAR = molecular target: T2, [Ser¹¹³]ßAR (Mesocricetus auratus, UniProt P04274, D113S); parameters: species or system hamster; settings: COS-7 cell membranes; equilibrium binding
T2 construct: pSVHAC contains the full length hamster ß₂AR cDNA cloned into the EcoRI site of pSVL; expressed in transfected cells; host or cells: COS-7 cells (membranes)
T2 sequence (P04274 whole entry D113S): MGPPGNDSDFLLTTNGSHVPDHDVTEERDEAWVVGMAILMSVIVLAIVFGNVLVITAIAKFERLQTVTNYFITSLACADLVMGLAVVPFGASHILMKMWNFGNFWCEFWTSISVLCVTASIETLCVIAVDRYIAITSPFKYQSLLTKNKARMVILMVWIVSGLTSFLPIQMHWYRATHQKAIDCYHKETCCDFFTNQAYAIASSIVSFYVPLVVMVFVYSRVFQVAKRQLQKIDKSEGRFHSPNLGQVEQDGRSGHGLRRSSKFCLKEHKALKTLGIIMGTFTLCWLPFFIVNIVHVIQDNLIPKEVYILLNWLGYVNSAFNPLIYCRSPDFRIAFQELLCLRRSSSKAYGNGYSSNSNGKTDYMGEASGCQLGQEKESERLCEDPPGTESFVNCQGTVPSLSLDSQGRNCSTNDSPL
Procedure: Membrane Preparation. COS-7 cell monolayers were washed 3 times in PBS, scraped from the flask with a rubber policeman, and centrifuged at 2000 x g for 5 min. The cell pellet was resuspended in 75 mM Tris, pH 7.4, 12.5 mM MgCl₂, […] EDTA (TME buffer) at a concentration of 10⁸ cells/ml, then diluted 1:5 with water and lysed by freezing in liquid N₂ and thawing with vigorous vortexing. Nuclei were removed by centrifugation over a cushion of 60% sucrose at 2500 x g for 15 min. The upper layer was collected, membranes pelleted by centrifugation at 40,000 x g for 15 min,and resuspended in TME at a protein concentration of 1-2 mg/ml.
Receptor Assays. ¹²⁵I-CYP binding to membranes was measured in a final volume of 250 ul of TME buffer, containing […] of membrane protein and 225 pM ¹²⁵I-CYP for 90 min at 23°C, as previously described Dixon et al. (1987), supra. Membranes were collected by filtration on GF/C glass fiber filters and bound ¹²⁵I-CYP was detected with a gamma counter. Nonspecific binding, measured in the presence of […] alprenolol, was subtracted from the total binding.

Wild-type βAR = molecular target: T3, Wild-type βAR (Mesocricetus auratus, UniProt P04274); experiment: Adenylyl cyclase stimulation in membranes of mouse L cells expressing the wild-type receptor; format: biochemical, hamster
T3 construct: pSVHAC contains the full length hamster ß₂AR cDNA cloned into the EcoRI site of pSVL; expressed in transfected cells; host or cells: mouse L cells (clonal lines, membranes)
T3 sequence (P04274 whole entry): as the sequence (P04274 whole entry D113S) above, with S113D counted along it
Procedure: as §1, §2, §3
Data Analysis. […] The Michaelis-Menton equation was used: V=Vmax[A]/Kact+[A], where V is the level of cyclase stimulation (in pmol ³²P-cAMP/mg protein/min) measured at a given agonist concentration [A], and Vmax is the calculated maximal stimulation at infinite agonist concentration.

T1 sequence (P04274 whole entry D113S): as the sequence (P04274 whole entry D113S) above

| SMILES | activation of [Ser¹¹³]ßAR ([Ser^113]βAR) | other results |
| --- | --- | --- |
| O=C(O)/C=C/c1ccc(O)c(O)c1 [Compound 8] | less effective | – |
| CCOC(=O)C(=O)Cc1ccc(O)c(O)c1 [Compound 9] | activated | – |
| O=C(O)C(=O)Cc1ccc(O)c(O)c1 [Compound 10] | less effective | – |
| CC(C)(C)NCC(O)COc1cccc2[nH]c(C#N)c([125I])c12 (centres unmarked) [¹²⁵I-CYP, ¹²⁵I-cyanopindolol] | – | ¹²⁵I-CYP binding ([Ser¹¹³]ßAR): did not bind detectable levels |
| CCOC(=O)C(O)c1ccc(O)c(O)c1 (centres unmarked) [Compound 12] | weakly | – |
| CNC[C@H](O)c1ccc(O)c(O)c1 [Compound 2, epinephrine] | – | EC50 (Wild-type βAR): 300 nM |

Continued, in another order:

| activation of [Ser¹¹³]ßAR ([Ser^113]βAR) | SMILES | other results |
| --- | --- | --- |
| activated | CCOC(=O)CCc1ccc(O)c(O)c1 [Compound 5] | – |
| activated | CCOC(=O)Cc1ccc(O)c(O)c1 [Compound 11] | – |
| less effective | O=C(O)CCc1ccc(O)c(O)c1 [Compound 6] | – |
| activated | COC(=O)/C=C/c1ccc(O)c(O)c1 [Compound 7] | – |
| activated | CCOC(=O)CC(O)c1ccc(O)c(O)c1 (centres unmarked) [Compound 13] | – |

From patent EP0453119A1, “Modified beta adrenergic receptor” (MERCK & CO. INC., priority 1990, dated 1991)
